These results are taken from article PMC5321741, “Arylmethylamino steroids as antiparasitic agents” (Nature Communications, 2017).

The nature of data set [1]: plasma protein binding (rapid equilibrium dialysis). The data set is classed as in vitro ADME. As to conditions: read-out: Plasma Protein Binding % bound (converted). The procedure: Pharmacokinetic data were obtained for compound 1o at the Sanford-Burnham Medical Research Institute according to established procedures. Compound solubility in an aqueous solution was measured using an automated kinetic solubility method. The concentration of the compound in a saturated pH-buffered aqueous solution was determined via UV absorbance (250–498 nm) and compared with the spectra of a precipitation-free reference solution. The plasma stability of the compound was determined at a single concentration using species-specific plasma. The percentage of parent compound remaining after 3 h was determined via LC-MS/MS. The percentage of compound 1o bound to plasma proteins was determined through rapid equilibrium dialysis and quantified via LC-MS/MS. Metabolic stability of the compound was determined at a single concentration using species-specific liver microsomes that contained cytochrome P450s, flavin-monooxygenases, carboxyl-esterases, epoxide hydrolases, and other drug-metabolizing enzymes. The quantification was carried out via LC-MS/MS. Membrane permeability of compound 1o was measured using an in vitro model for the passive transport from the gastrointestinal tract into the blood system. A double-sink parallel artificial membrane permeability assay PAMPA, in a 96-well format was employed.
A general note: In equilibrium dialysis free small molecules cross a membrane that holds back macromolecules.

The next data set in a line: in vivo. Set-up: species or system C57BL/6 mice. As to conditions: C57BL/6, mouse. The procedure:
The compound was applied at an accumulative dose of 100 mg kg^−1 (per os (p.o.). as well as intraperitoneally (i.p.)). The first application was 5 mg kg^−1, 2 h later 15 mg kg^−1, 2 h later 30 mg kg^−1 and again 2 h later 50 mg kg^−1. […] Moreover, we performed pharmacokinetics studies in mice, dosing i.v., i.p. and p.o. (Supplementary Table 5). […] In contrast, high exposure and sustained levels of ∼2 μM were obtained after i.p. dosing at 100 mg kg^−1.
Parameter (n=3/time point)
Supplementary Table 5. Mouse pharmacokinetics of compound 1o.

Data set [2] has as its target T1, recombinant protein hGrx1-roGFP2 (Homo sapiens, UniProt P35754).
T1 construct: made in house
In words: in vitro interaction with recombinant redox probe. The data set is classed as biochemical. To be noted: 10 nM to 100 µM, 4 h and 24 h. On the procedure:
(2) Chromogenic precipitating substrates following a poly-condensation (so called “polymerization”) pathway, which is tuneable by utilizing metal catalytic effects via introduction of metal chelating groups.32-33 […]
Heterologous overexpression of hGrx1-roGFP2 and in vitro measurements with the recombinant protein were carried out as described45 with minor modifications. […] The emission of hGrx1-roGFP2 (510 nm) after excitation at 405 nm and 475 nm was measured in a plate reader (Clariostar, BMG Labtech) with optimal read settings. The ratio of the fluorescence […]
signals at 405/475 nm were calculated and plotted against time and/or concentration of compound 1o or redox active compounds. […]
100 µM for 4 h and 24 h incubations. Transfection of the Pf3D7 strain with the redox sensor was carried out, and the parasites were cultured as described under constant drug pressure with 5 nM WR99210 (Jacobus Pharmaceuticals, New Jersey, USA).45,46 P. falciparum trophozoites were enriched via magnet separation.47 Parasitemia was counted by using Giemsa-stained blood smears. […] (6-8% parasitemia) were magnetically enriched (Miltenyi Biotec, Germany), counted by using the improved Neubauer hemocytometer (Brand GmbH, Germany), and returned to cell culture (at 0.5 x 10^6 trophozoites/µl) for at least 1 h to recover. […]

Each structure is given as a SMILES string. Like-named read-outs stand apart in the source and are kept apart here.

`COc1ccc2c(c1)CCC1C2CC[C@@]2(C)C1CC[C@H]2NCc1cc2ccccc2cc1O` (stereo partly shown) [1o]: in data set [1] (Human), the fraction unbound at 1 µM is 0.0087 and the fraction unbound at 10 µM is 0.0094. Further, in data set [1] (Mouse), the fraction unbound at 1 µM was 0.0094 and the fraction unbound at 10 µM is 0.0107. Also, in the data set “in vivo” (ip, 100 mg/kg), the area under the curve AUC(0-t) – broadly, the area under the concentration-time curve up to a stated or last time point – was found to be 13000 ng·h/mL; the Cmax – broadly, the peak of the concentration-time curve – amounted to 850 ng/mL; the time of peak concentration (Tmax) (in general, the time from dosing to the highest level) was 3 h; the bioavailability – broadly, dose-corrected exposure relative to a reference, in per cent – was 24%. Besides, the half-life (in general, how long it takes for the measured level to halve) in the data set “in vivo” (ip, 100 mg/kg) is over 8 h. In addition, in “in vivo” (iv, 1 mg/kg), the AUC(0-t) is 567 ng·h/mL; the Vd (commonly a proportionality between amount in the body and measured concentration, not a real space) stood at 6.4 L/kg; the clearance – broadly, the volume of plasma or blood freed of the substance per unit of time – is 29.6 mL/min/kg; the half-life is over 8 h. For the same compound, in the data set “in vivo” (po, 100 mg/kg), the AUC(0-t) was determined as 622 ng·h/mL, the highest concentration (Cmax) was 43 ng/mL, the Tmax amounted to 8.25 h and the bioavailability was under 5%. In the data set “in vivo” (po, 100 mg/kg), this compound had a half-life of over 8 h. Further, in data set [2], the “direct interaction with recombinant hGrx1-roGFP2” value is “No direct interaction was detected”.
